Laboratory results taken from patent US7109323B2, “Formulation of boronic acid compounds” (The United States of America as represented by the …, priority 2001, dated 2006).

How the values were obtained:
Assay type in all cases: physicochemical
[1] = dynamic vapor sorption studies; details: crystalline product
[2] = reconstitution / dissolution of the formulation in aqueous solvents; details: 0.9% w/v saline, saline or isotonic, thermodynamic from solid; read-out: solubility (concentration dissolved)
Procedure: One sample was reconstituted with 2 mL of water. Dissolution was complete within 1-2 minutes of shaking. The entire solution was transferred to a volumetric flask, diluted, and analyzed by HPLC for content of N-(2-pyrazine)carbonyl-L-phenylalanine-L-leucine boronic acid. The total drug content was 1.09 mg. A second sample was reconstituted with 1 mL of propylene glycol:EtOH:H2O, 40:10:50. Dissolution was complete with 1 minute of shaking. The total drug content was 1.11 mg.
The lyophilized formulation was also reconstituted with 0.9% w/v saline. The lyophilized material dissolved readily at concentrations up to 6 mg/mL.
(§1) The lyophilized product was prepared according to Example 1, and samples (2.5 mg/vial) were reconstituted with 2.5 mL of 0.9% w/v sterile saline. […] No special care was taken to protect the solution from light.

[3] = storage stability determined by HPLC analysis
Procedure: The product was obtained as a white amorphous powder. The product was stable for more than 2 years when stored at −20° C., as determined by HPLC analysis (purity >97%). When stored at 2-8° C., the product was not stable for longer than 3-6 months.
When stored at 2-8° C., the liquid formulation was not stable for longer than 6 months, as determined by HPLC analysis.
The lyophilized product was prepared according to Example 1 and stored at 5° C., ambient temperature, 37° C., and 50° C. Stability was monitored for approximately 18 months by periodically reconstituting a sample and analyzing the entire contents of the bottle by HPLC.
as §1

| solubility [2] [µg/mL] | time stable on storage ([3]; stored at 2-8° C., HPLC analysis) | time stable on storage ([3]; stored at −20° C., HPLC analysis (purity >97%)) | SMILES | hygroscopicity [1] |
| --- | --- | --- | --- | --- |
|  |  |  | CC(C)C[C@H](NC(=O)[C@H](Cc1ccccc1)NC(=O)c1cnccn1)B1OB([C@H](CC(C)C)NC(=O)[C@H](Cc2ccccc2)NC(=O)c2cnccn2)OB([C@H](CC(C)C)NC(=O)[C@H](Cc2ccccc2)NC(=O)c2cnccn2)O1 [N-(2-pyrazine)carbonyl-L-phenylalanine-L-leucine boroxine] | non-hygroscopic |
| < 1000 | 3-6 months | more than 2 years | CC(C)C[C@H](NC(=O)[C@H](Cc1ccccc1)NC(=O)c1cnccn1)B(O)O [N-(2-pyrazine)carbonyl-L-phenylalanine-L-leucine boronic acid] |  |
